Data: ChEMBL document CHEMBL1128457, “New antihistamines: substituted piperazine and piperidine derivatives as novel H1-antagonists” (J Med Chem, 1995)

Assays:
[1] = Dissociation constant (KD) of the compound
[2] = target: Histamine H1 receptor (Cavia porcellus) (UniProt P31389); test: In vitro antagonism of histamine-induced contraction of guinea pig ileum at 1x10E-7M; type: functional, tissue-based
[3] = target: T1, 5-hydroxytryptamine receptor 1A (Homo sapiens, UniProt P08908); test: Compound is evaluated for in vitro receptor binding affinity against 5-hydroxytryptamine 1A receptor; design: species or system Cavia porcellus
T1 sequence (P08908 whole entry): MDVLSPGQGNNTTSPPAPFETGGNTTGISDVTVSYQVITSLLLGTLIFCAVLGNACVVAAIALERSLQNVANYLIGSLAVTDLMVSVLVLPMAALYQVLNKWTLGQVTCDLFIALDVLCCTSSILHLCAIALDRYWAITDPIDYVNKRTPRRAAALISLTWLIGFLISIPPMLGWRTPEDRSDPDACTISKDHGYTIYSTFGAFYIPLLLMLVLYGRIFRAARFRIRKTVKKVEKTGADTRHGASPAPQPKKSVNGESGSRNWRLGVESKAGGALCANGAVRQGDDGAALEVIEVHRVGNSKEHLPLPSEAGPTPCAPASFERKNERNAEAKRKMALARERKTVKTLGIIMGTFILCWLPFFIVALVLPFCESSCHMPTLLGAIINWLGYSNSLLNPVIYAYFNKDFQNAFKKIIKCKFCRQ

Histamine H1 receptor = Histamine H1 receptor (Cavia porcellus, UniProt P31389); test: Compound is evaluated for in vitro receptor binding affinity against H1 receptor
Sequence of Histamine H1 receptor (P31389 whole entry): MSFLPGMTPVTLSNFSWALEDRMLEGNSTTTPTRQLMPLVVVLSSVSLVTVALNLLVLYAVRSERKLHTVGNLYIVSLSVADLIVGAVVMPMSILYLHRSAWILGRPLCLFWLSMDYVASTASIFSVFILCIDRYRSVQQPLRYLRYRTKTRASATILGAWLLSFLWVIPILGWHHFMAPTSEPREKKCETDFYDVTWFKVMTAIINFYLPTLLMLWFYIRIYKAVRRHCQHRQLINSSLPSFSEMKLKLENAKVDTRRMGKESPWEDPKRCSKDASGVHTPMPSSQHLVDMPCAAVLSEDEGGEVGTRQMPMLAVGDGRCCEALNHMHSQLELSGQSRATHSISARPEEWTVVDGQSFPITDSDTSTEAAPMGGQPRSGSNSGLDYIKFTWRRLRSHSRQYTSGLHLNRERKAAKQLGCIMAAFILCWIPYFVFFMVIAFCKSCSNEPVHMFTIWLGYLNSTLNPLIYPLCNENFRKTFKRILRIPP

[4] = Partition coefficient (logP); type: physicochemical; details: octanol/water
Cavia porcellus [5] = test: Compound is tested for protection by antihistamines against histamine-induced lethality in the guinea pig by oral administration with a pretreatment period of 1 h; type: functional
D(2) dopamine receptor = D(2) dopamine receptor (Homo sapiens, UniProt P14416); test: Compound is evaluated for in vitro receptor binding affinity against Dopamine receptor D2; design: species or system Cavia porcellus
Sequence of D(2) dopamine receptor (P14416 whole entry): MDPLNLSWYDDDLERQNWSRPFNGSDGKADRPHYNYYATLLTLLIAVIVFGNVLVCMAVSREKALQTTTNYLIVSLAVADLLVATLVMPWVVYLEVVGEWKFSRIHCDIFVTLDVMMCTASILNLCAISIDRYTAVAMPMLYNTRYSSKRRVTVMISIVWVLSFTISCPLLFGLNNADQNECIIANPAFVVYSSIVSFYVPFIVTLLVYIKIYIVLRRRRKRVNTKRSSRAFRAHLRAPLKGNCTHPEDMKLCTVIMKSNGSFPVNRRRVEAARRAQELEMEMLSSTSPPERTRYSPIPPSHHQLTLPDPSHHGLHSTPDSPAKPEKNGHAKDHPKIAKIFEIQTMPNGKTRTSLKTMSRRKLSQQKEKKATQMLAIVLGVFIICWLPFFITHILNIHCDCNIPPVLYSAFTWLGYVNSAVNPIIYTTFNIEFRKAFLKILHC

[6] = target: T2, Muscarinic acetylcholine receptor M1 (Homo sapiens, UniProt P11229); test: Compound is evaluated for in vitro receptor binding affinity against Muscarinic acetylcholine receptor M1; design: species or system Cavia porcellus
T2 sequence (P11229 whole entry): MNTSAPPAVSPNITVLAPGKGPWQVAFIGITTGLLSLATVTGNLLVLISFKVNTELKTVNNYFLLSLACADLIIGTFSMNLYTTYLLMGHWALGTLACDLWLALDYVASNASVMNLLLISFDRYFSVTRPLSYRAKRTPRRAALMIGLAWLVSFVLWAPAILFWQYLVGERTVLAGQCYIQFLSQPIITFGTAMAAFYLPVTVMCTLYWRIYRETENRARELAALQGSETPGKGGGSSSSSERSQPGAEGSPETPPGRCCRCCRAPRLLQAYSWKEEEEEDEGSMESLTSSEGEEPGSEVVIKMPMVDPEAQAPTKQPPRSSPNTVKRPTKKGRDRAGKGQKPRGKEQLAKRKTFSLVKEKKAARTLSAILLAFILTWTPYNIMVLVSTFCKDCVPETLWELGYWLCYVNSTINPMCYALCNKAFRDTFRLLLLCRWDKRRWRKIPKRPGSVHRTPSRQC

[7] = target: T3, Muscarinic acetylcholine receptor M2 (Homo sapiens, UniProt P08172); test: Compound is evaluated for in vitro receptor binding affinity against Muscarinic acetylcholine receptor M2; design: species or system Cavia porcellus
T3 sequence (P08172 whole entry): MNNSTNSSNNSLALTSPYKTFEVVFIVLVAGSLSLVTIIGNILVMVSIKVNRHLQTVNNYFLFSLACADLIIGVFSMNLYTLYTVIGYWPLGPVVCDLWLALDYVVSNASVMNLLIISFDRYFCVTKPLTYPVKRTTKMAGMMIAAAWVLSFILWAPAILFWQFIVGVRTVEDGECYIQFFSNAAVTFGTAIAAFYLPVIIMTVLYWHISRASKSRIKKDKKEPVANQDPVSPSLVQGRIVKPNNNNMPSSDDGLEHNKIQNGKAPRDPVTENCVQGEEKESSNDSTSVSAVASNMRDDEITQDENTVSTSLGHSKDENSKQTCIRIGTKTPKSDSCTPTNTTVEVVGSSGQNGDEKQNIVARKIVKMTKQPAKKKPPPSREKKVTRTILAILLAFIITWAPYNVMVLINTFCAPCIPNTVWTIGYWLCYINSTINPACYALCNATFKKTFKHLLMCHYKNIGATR

[8] = target: Histamine H1 receptor (Cavia porcellus) (UniProt P31389); test: Compound is evaluated for the inhibition of H1-receptor antagonists of histamine-induced skin wheal formation in the guinea pig with a pretreatment interval prior to histamine challenge at 1 h; type: functional
[9] = pA2 value is determined compared to standard H1-antagonists; type: ADME
[10] = target: T4, Adrenergic receptor alpha-1 (Homo sapiens, UniProt P35348+P25100+P35368); test: Compound is evaluated for in vitro receptor binding affinity against Alpha-1 adrenergic receptor; type: protein assay, Cavia porcellus
T4 sequence (P35348 whole entry): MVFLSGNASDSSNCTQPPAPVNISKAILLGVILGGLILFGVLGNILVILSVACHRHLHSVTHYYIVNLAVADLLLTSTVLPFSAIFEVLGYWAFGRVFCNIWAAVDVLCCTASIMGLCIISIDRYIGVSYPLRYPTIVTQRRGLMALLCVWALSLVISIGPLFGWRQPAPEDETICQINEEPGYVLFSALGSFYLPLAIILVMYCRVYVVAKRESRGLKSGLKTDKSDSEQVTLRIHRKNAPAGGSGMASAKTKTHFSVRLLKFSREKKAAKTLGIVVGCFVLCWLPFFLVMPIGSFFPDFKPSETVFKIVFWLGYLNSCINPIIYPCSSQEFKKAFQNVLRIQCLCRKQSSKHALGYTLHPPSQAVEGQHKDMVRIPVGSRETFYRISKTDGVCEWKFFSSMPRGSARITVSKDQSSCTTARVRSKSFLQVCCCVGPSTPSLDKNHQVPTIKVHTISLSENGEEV
T4 sequence (P25100 whole entry): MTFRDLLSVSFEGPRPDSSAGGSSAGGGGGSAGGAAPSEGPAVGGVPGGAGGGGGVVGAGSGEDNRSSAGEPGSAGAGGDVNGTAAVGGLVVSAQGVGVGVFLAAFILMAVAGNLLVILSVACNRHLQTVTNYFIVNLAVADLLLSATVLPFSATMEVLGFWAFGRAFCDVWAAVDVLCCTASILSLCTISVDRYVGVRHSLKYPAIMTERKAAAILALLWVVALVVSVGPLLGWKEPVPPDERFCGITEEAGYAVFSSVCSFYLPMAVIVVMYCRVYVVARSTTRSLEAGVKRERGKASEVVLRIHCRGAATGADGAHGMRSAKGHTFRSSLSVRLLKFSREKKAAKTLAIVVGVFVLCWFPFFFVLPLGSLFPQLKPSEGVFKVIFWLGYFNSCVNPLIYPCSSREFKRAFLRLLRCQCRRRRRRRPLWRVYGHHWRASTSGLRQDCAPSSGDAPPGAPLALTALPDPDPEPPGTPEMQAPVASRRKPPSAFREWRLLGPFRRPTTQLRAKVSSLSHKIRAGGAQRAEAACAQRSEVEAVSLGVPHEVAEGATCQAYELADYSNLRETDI
T4 sequence (P35368 whole entry): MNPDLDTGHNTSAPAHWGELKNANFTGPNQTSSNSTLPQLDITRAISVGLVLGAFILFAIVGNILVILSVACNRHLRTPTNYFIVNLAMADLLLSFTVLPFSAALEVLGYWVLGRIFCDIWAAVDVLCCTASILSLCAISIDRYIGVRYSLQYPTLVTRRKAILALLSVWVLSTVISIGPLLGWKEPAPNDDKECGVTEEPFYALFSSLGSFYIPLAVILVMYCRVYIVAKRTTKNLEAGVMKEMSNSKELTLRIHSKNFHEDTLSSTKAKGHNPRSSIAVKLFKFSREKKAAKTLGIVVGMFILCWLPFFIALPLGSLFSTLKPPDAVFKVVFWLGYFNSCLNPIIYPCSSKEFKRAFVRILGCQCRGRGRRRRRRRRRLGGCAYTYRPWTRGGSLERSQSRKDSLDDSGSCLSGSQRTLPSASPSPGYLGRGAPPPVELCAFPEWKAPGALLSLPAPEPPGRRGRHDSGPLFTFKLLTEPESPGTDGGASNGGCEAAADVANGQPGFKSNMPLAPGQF

[11] = Potency relative to 7-[3-(4-Benzhydryloxy-piperidine-1-yl)-propyl]-1,3-dimethyl-3,7-dihydro-purine-2,6-dione; Relative potency = […]/[…]
[12] = target: Histamine H1 receptor (Cavia porcellus) (UniProt P31389); test: Compound is evaluated for the inhibition of H1-receptor antagonists of histamine-induced skin wheal formation in the guinea pig with a pretreatment interval prior to histamine challenge at 18 h; type: functional
Cavia porcellus [13] = test: Compound is tested for protection by antihistamines against histamine-induced lethality in the guinea pig by oral administration with pretreatment period of 18 h; type: functional

Sequence of Histamine H1 receptor (Cavia porcellus) (P31389 whole entry): as the sequence (P31389 whole entry) above

CC(C)(C)c1ccc(C(O)CCCN2CCC(C(O)(c3ccccc3)c3ccccc3)CC2)cc1 (centres undefined) [TERFENADINE]
Kd [1]: 33 nM

Cn1c(=O)c2c(ncn2CCCN2CCN(c3cncc(Cl)n3)CC2)n(C)c1=O
inhibition [2]: 29%

Cn1c(=O)c2c(ncn2CCCN2CCN(c3ccc(Cl)nn3)CC2)n(C)c1=O
inhibition [2]: 50%

O=C1C2C3C=CC(C4CC34)C2C(=O)N1CCCCN1CCN(C(c2ccccc2)c2ccccc2)CC1 (centres undefined)
inhibition [2]: 50%

O=C1C2C3C=CC(C4CC34)C2C(=O)N1CCCCN1CCN(c2ccc(Cl)nn2)CC1 (centres undefined)
inhibition [2]: 76%

Cl.Cl.Cn1c(=O)c2c(ncn2CCCN2CCN(C(c3ccc(F)cc3)c3ccc(F)cc3)CC2)n(C)c1=O
% inhibition [3]: 38% | IC50 (Histamine H1 receptor): 220 nM | logP [4]: 1.81 | ED50 (Cavia porcellus [5]): 1.96 mg/kg | Kd [1]: 6.6 nM | % inhibition (D(2) dopamine receptor): 43% | IC50 [6]: 670 nM | IC50 [7]: > 10000 nM | inhibition [2]: 92% | ED50 [8]: 0.45 mg/kg | pA2 [9]: 8.2 | IC50 [10]: 59 nM | Relative potency [11]: 0.0012

O=C1C2C3C=CC(C4CC34)C2C(=O)N1CCCN1CCN(C(c2ccc(F)cc2)c2ccc(F)cc2)CC1 (centres undefined)
inhibition [2]: 29%

O=C1C2C3C=CC(C4CC34)C2C(=O)N1CCCCN1CCN(C(c2ccc(F)cc2)c2ccc(F)cc2)CC1 (centres undefined)
inhibition [2]: 98%

CN(C)CCC(c1ccc(Cl)cc1)c1ccccn1 (centres undefined) [CHLORPHENIRAMINE]
Kd [1]: 3.7 nM | ED50 [12]: 1.07 mg/kg | ED50 [8]: 0.79 mg/kg | pA2 [9]: 8.4

O=C1C2C3C=CC(C4CC34)C2C(=O)N1CCN1CCN(C(c2ccccc2)c2ccccc2)CC1 (centres undefined)
inhibition [2]: < 10%

COc1ccc(CCN2CCC(Nc3nc4ccccc4n3Cc3ccc(F)cc3)CC2)cc1 [ASTEMIZOLE]
Kd [1]: 5.5 nM | ED50 [8]: 0.53 mg/kg | pA2 [9]: 8.3

Cn1c(=O)c2c(ncn2CCCN2CCN(C(c3ccccc3)c3ccc(Cl)cc3)CC2)n(C)c1=O (centres undefined)
inhibition [2]: 29%

CC(C)(C)c1ccc(C(=O)CCCN2CCC(OC(c3ccccc3)c3ccccc3)CC2)cc1 [EBASTINE]
logP [4]: 2.74 | ED50 (Cavia porcellus [5]): 0.45 mg/kg | Kd [1]: 4 nM | ED50 (Cavia porcellus [13]): 1.71 mg/kg | pA2 [9]: 7.4

O=C1CC2(CCCC2)CC(=O)N1CCCCN1CCN(C(c2ccc(F)cc2)c2ccc(F)cc2)CC1
inhibition [2]: 77%

Cn1c(=O)c2c(ncn2CCCN2CCN(c3nccnc3Cl)CC2)n(C)c1=O
inhibition [2]: < 10%

O=C1C2C3C=CC(C4CC34)C2C(=O)N1CCCN1CCN(C(c2ccccc2)c2ccc(Cl)cc2)CC1 (centres undefined)
inhibition [2]: < 10%

O=C1C2C3C=CC(C4CC34)C2C(=O)N1CCN1CCN(C(c2ccc(F)cc2)c2ccc(F)cc2)CC1 (centres undefined)
inhibition [2]: < 10%

Cn1c(=O)c2c(ncn2CCCCN2CCN(C(c3ccc(Cl)cc3)c3ccc(Cl)cc3)CC2)n(C)c1=O
inhibition [2]: 14%
